This is an account of results in ChEMBL document CHEMBL5715936, “Selective Itk inhibitors block T-cell activation and murine lung inflammation” (Biochemistry, 2004).

pIC50: −log10 of the molar value. Where only a bound is given, the exact number is not on record here.

Assay [1] concerns the target cAMP-dependent protein kinase (PKA) (Homo sapiens, UniProt P22694+P17612+P22612). The assay can be described thus: Inhibition of PKA (unknown origin) using GST-SLP-76 as peptide substrate incubated for 10 mins in presence of [gamma-33P]ATP by scintillation counter assay. Format: protein assay.
Assay [2] concerns the target Tyrosine-protein kinase BTK (Homo sapiens, UniProt Q06187). Description: Inhibition of Btk (unknown origin) using GST-SLP-76 as peptide substrate incubated for 10 mins in presence of [gamma-33P]ATP by scintillation counter assay.
Assay [3] deals with Tyrosine-protein kinase Lck (Homo sapiens, UniProt P06239). The assay can be described thus: Inhibition of Lck (unknown origin) using GST-SLP-76 as peptide substrate incubated for 10 mins in presence of [gamma-33P]ATP by scintillation counter assay.
The next assay concerns the target Protein kinase C (PKC). The assay can be described thus: Inhibition of PKC (unknown origin) using GST-SLP-76 as peptide substrate incubated for 10 mins in presence of [gamma-33P]ATP by scintillation counter assay. Format: protein assay, Homo sapiens.
The target in assay [4] is Cyclin-dependent kinase 2 (Homo sapiens, UniProt P24941). Description: Inhibition of Cdk2 (unknown origin) using GST-SLP-76 as peptide substrate incubated for 10 mins in presence of [gamma-33P]ATP by scintillation counter assay.
Assay [5] has as its target T1, Tyrosine-protein kinase ZAP-70 (Homo sapiens, UniProt P43403).
T1 sequence (P43403 whole entry): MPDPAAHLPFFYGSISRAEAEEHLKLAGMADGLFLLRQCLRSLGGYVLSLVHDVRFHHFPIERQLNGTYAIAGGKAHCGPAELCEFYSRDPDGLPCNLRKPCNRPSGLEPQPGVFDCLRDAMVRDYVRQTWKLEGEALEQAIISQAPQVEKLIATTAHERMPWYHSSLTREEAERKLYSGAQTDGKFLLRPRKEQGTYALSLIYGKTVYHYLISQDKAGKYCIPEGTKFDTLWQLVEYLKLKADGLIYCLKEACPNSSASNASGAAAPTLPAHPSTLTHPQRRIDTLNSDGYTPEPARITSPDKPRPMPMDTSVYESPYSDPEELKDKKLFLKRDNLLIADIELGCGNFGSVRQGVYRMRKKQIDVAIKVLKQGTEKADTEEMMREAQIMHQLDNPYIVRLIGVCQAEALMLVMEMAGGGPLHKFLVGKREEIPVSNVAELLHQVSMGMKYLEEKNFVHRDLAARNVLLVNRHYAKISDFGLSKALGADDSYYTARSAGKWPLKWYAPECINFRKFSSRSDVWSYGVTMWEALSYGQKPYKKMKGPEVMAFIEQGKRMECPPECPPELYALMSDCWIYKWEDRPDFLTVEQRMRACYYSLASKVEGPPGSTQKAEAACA
Description: Inhibition of ZAP-70 (unknown origin) using GST-SLP-76 as peptide substrate incubated for 10 mins in presence of [gamma-33P]ATP by scintillation counter assay.

Assay [6] concerns the target T2, Cytoplasmic tyrosine-protein kinase BMX (Homo sapiens, UniProt P51813).
T2 sequence (P51813 whole entry): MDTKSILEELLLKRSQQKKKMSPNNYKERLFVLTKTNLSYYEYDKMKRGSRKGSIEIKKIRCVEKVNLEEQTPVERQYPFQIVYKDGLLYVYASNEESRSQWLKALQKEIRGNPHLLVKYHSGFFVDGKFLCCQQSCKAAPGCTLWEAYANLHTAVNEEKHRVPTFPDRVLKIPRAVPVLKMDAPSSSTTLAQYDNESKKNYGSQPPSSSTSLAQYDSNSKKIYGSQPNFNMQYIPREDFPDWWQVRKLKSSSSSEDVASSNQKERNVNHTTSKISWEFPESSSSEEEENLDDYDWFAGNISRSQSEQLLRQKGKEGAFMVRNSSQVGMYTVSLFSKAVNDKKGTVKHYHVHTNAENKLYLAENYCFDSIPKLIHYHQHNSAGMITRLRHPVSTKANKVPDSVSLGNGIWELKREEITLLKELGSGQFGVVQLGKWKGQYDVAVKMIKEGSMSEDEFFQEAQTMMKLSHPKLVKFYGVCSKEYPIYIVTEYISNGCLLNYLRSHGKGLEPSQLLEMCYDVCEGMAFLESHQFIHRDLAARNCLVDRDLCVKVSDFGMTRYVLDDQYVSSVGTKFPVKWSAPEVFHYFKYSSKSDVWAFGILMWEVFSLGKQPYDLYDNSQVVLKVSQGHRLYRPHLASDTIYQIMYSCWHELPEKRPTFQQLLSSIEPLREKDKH
Description: Inhibition of Bmx (unknown origin) using GST-SLP-76 as peptide substrate incubated for 10 mins in presence of [gamma-33P]ATP by scintillation counter assay.

Assay [7] addresses Epidermal growth factor receptor (Homo sapiens, UniProt P00533). Description: Inhibition of EGFR (unknown origin) using GST-SLP-76 as peptide substrate incubated for 10 mins in presence of [gamma-33P]ATP by scintillation counter assay.
Assay [8] has as its target T3, Tyrosine-protein kinase TXK (Homo sapiens, UniProt P42681).
T3 sequence (P42681 whole entry): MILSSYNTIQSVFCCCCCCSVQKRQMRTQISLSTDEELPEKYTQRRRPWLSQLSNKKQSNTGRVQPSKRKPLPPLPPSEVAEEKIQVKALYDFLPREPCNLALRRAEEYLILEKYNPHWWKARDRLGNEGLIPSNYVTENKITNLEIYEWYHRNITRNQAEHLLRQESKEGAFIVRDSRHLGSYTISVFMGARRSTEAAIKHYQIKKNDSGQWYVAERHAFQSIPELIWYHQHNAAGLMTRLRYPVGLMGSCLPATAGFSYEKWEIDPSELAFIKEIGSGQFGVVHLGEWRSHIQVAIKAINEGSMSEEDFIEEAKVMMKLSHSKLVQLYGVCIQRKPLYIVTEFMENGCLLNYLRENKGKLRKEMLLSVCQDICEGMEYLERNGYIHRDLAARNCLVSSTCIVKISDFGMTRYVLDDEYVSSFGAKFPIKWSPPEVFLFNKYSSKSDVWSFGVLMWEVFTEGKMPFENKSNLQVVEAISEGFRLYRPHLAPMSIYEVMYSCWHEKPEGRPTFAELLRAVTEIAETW
Description: Inhibition of Txk (unknown origin) using GST-SLP-76 as peptide substrate incubated for 10 mins in presence of [gamma-33P]ATP by scintillation counter assay.

Assay [9] addresses Tyrosine-protein kinase SYK (Homo sapiens, UniProt P43405). Description: Inhibition of Syk (unknown origin) using GST-SLP-76 as peptide substrate incubated for 10 mins in presence of [gamma-33P]ATP by scintillation counter assay.
The target of assay [10] is T4, Tyrosine-protein kinase Tec (Homo sapiens, UniProt P42680).
T4 sequence (P42680 whole entry): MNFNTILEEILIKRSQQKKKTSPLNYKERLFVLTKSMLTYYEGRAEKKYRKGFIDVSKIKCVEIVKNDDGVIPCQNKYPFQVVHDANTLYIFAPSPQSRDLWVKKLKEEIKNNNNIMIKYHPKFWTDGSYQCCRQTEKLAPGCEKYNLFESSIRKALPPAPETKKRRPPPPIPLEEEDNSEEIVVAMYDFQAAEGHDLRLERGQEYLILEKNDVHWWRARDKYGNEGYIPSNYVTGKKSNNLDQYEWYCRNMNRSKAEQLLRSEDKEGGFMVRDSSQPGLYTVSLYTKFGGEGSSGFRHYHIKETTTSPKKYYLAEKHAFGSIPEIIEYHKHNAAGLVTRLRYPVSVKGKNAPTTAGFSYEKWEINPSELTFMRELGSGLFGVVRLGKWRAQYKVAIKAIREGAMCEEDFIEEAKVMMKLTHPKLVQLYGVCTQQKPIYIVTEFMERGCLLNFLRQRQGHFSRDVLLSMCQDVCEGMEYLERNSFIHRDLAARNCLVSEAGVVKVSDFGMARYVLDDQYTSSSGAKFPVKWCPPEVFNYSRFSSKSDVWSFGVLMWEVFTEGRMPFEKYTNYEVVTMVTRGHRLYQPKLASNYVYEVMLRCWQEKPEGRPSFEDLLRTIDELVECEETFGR
The assay can be described thus: Inhibition of Tec (unknown origin) using GST-SLP-76 as peptide substrate incubated for 10 mins in presence of [gamma-33P]ATP by scintillation counter assay.

The target in assay [11] is Mitogen-activated protein kinase 3 (Homo sapiens, UniProt P27361). Description: Inhibition of ERK-1 (unknown origin) using GST-SLP-76 as peptide substrate incubated for 10 mins in presence of [gamma-33P]ATP by scintillation counter assay.

As usually defined, the IC50 is the concentration needed to halve the response being measured. What is called pIC50 is the negative decadic logarithm of the IC50, by convention in mol/L.

Epidermal growth factor receptor, sequence (P00533 whole entry): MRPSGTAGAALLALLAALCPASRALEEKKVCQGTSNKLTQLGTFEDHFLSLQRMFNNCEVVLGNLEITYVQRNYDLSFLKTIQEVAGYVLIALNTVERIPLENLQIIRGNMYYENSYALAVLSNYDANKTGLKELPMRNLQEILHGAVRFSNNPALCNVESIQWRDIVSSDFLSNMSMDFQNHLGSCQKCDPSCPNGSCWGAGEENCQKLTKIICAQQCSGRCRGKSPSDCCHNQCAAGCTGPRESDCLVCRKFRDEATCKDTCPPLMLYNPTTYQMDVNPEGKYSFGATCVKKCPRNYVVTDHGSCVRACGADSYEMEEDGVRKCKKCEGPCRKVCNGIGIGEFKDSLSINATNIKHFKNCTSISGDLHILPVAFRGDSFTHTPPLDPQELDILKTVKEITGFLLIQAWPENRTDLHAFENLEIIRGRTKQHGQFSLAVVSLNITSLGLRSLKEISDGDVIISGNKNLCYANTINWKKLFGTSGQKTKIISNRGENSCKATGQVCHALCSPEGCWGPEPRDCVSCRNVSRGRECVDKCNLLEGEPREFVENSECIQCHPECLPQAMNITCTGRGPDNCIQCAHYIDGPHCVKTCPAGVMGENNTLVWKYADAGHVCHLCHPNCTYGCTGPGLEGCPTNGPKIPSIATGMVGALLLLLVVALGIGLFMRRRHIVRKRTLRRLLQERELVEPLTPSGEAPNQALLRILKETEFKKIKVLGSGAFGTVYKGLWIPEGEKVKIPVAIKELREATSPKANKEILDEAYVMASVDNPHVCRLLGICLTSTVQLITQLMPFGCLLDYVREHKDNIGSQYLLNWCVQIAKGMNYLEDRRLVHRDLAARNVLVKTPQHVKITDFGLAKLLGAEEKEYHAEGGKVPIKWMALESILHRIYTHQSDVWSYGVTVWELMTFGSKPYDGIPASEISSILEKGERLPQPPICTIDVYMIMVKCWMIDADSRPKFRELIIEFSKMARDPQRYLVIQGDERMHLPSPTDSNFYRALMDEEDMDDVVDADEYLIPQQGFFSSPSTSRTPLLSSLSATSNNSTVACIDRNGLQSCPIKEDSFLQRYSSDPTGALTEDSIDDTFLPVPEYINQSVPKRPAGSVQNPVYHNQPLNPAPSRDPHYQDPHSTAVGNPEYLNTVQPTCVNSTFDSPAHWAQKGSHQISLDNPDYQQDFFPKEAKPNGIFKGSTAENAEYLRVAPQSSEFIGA
Tyrosine-protein kinase Lck, sequence (P06239 whole entry): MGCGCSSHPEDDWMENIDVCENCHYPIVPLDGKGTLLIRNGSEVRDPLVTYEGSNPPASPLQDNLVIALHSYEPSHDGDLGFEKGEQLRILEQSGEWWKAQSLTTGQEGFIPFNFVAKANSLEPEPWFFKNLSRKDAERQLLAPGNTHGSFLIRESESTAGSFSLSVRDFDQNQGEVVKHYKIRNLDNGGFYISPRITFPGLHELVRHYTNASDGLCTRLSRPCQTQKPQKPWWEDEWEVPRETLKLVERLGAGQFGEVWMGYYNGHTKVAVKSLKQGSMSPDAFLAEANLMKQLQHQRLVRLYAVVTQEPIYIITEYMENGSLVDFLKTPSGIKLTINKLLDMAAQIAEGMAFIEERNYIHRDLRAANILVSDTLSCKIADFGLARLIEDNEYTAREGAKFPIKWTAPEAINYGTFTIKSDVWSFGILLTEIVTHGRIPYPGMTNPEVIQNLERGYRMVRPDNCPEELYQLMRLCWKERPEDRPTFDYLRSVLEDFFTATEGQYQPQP
Mitogen-activated protein kinase 3, sequence (P27361 whole entry): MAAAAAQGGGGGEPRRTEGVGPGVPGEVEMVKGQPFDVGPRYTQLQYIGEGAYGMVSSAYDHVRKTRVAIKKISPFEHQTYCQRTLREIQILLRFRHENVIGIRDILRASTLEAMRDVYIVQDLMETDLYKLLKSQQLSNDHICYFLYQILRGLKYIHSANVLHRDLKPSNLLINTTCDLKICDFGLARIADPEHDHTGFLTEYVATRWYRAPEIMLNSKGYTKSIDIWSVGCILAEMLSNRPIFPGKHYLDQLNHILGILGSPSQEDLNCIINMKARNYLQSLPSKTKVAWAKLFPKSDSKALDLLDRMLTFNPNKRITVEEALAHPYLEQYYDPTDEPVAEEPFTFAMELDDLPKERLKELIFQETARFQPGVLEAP
Tyrosine-protein kinase BTK, sequence (Q06187 whole entry): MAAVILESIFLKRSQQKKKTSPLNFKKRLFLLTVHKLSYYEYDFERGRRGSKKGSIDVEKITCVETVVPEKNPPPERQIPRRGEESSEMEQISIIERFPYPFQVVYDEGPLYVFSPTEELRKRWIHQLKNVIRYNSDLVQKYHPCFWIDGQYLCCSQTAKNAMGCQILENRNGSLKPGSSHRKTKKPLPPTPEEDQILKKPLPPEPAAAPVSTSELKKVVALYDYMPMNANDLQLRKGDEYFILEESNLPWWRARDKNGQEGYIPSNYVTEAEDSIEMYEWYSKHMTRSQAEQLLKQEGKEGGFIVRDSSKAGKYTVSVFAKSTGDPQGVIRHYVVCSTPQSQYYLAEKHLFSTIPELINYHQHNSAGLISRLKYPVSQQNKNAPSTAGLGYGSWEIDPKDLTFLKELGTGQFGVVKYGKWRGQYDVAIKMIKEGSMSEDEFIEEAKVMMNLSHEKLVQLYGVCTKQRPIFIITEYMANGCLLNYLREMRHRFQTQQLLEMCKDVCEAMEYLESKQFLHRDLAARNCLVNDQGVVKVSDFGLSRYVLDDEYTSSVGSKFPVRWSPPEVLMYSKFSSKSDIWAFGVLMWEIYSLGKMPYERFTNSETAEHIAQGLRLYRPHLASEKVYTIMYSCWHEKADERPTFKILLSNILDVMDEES

For the compound `CC(=O)N1CCN(C(=O)c2cccc(CSc3cnc(NC(=O)c4ccc(N(C)C)cc4)s3)c2)CC1`, the IC50 (in [1]; on Protein kinase C (PKC)) was above 50 µM each time. For the same compound, the negative-log IC50 (pIC50) in assay [2] was 4.31; in assay [3], below 4.60; in [4] it was 4.57; in assay [5], below 4.30; in assay [6], 4.70; in assay [7], below 4.30. Moreover, the pIC50 in assay [8], in assay [9], in [10] and in assay [11] was below 4.30 throughout.
